Source: patent US6369101B1, “Therapeutic method to treat herpes virus infection” (Regents of the University of Minnesota, priority 1999, dated 2002)
≈ marks a conversion by molar mass, not a printed value.

Tests used:
HSV-2 strain MS = assay: CPE inhibition assay, HSV-2 MS in human foreskin fibroblast cells; assay type: cell-based, herpes simplex virus type 2; on Qualitative CPE at 2.0 ml dose HSV-2 MS: key: +++ = Complete cytopathic effect; ++ = Moderate cytopathic effect; + = Minimum cytopathic effect; − = No cytopathic effect
Description: (§1) Stock solutions of the compounds used for the testing of antiviral activity against HSV-1 and HSV-2 were prepared in distilled water, filtered through 0.2 μm filter (Acrodisco®, Gelman Sciences, USA) and stored at room temperature until used.
(§2) Human laryngeal epithelial carcinoma cells (HEp-2, ATCC, Rockville, Md.) were used for testing of antiviral compounds by cytopathic effect (CPE) inhibition and plaque reduction assay. Primary human foreskin fibroblast cells (HFF) obtained from Dr. E. R. Kern (Department of Pediatrics, University of Alabama Medical School, 309 Bevill Biomedical Research Building, 845 19th Street South, Birmingham, Ala., 35294-2170), were used for cytopathic effect (CPE) inhibition assay. HEp-2, African green monkey kidney cells (Vero, ATCC), HFF and primary rabbit kidney cells were used to determine the cytotoxic effect of compounds of formula I. These cells were propagated in Dulbeco's modified Eagle's medium (DMEM) (Sigma, USA) supplemented with 10% inactivated fetal calf serum (FCS), 25 mM HEPES, 0.2% sodium bicarbonate and 1% penicillin/-streptomycin at 37° C. in the presence of 5% CO2.
(§3) The antiviral activity of the test compounds was determined against HSV-1 strain F, HSV-2 strain G (ATCC), HSV-1 strain E-377 and HSV-2 strain MS (Dr. E. R. Kern, see above), CMV strain AD 169 (NIH), HCMV (NIH), MCMV (NIH), and VZV strain Ellen (NIH). Highly infective virus stocks of HSV-1 and HSV-2 were prepared by infecting a confluent monolayer of HEp-2 (ATCC) or HFF in 150 cm^2 plastic tissue culture flasks (Falcon, USA) at a multiplicity of infection of 0.5 in DMEM supplemented with 10% inactivated fetal calf serum and 1% penicillin/streptomycin at 37° C. in the presence of 5% CO2. The infected cells were disrupted through three freeze/thaw cycles, and viruses were clarified from large cell debris by low speed centrifugation at 3000 rpm for 10 minutes. The virus suspension was separated, aliquoted and stored at −80° C. until assayed or used for animal infection. The stock HSV-1 (E377) and HSV-2 (MS strain) contained 3.5×10^8 and 1.1×10^7 pfu/ml respectively.
(§4) Low passage HFF cells were seeded into 96-well tissue culture plates 24 hours prior to use at a cell concentration of 2.5×10^4 cells per ml in 0.2 ml of DMEM supplemented with 10% fetal calf serum. After 24 hours of incubation at 37° C. in the presence of 5% CO2, medium was removed and the test compounds were diluted two-fold in DMEM in the 96-well tissue culture plate containing monolayer. […] For both HSV-1 and HSV-2 assays, the virus concentration utilized was 1000 pfu/ml and for HCMV, MCMV, and VZV assay 2500 pfu/ml were used. The plates were then incubated at 37° C. in the presence of 5% CO2 for two to three days for HSV-1 and HSV-2, 10 days for VZV and 14 days for HCMV and MCMV. The virus induced cytopathic effect (CPE) was monitored microscopically every day. CPE of HSV-1 was recognized by cell rounding and clumping, while HSV-2 formed large syncytia along with rounding and clumping of cells. […] EC50s were estimated from graphical plots of percent CPE against the concentration of the test compounds. The EC50s for each compound are the mean of EC50s for three or more independent experiments. After three days of incubation period, media was aspirated and the cells stained with a 0.1% crystal violet solution for 30 minutes. The stain was then removed and the plates were rinsed with tap water, air dried and retained.

HSV-1 strain E-377 = assay: CPE inhibition assay, HSV-1 E377 in human foreskin fibroblast cells; assay type: cell-based, herpes simplex virus type 1; on Qualitative CPE at 2.0 ml dose HSV-1 E377: key: +++ = Complete cytopathic effect; ++ = Moderate cytopathic effect; + = Minimum cytopathic effect; − = No cytopathic effect
Description: as §1, §2, §3, §4

[1] = tested on: Primary human foreskin fibroblast cells (HFF); assay: Cell proliferation assay (cytotoxicity) in HFF cells; assay type: cell-based; settings: for CC50: Human foreskin fibroblast cells, reduces growth of uninfected cells by 50%
Description: as §2, with “Primary human foreskin fibroblast cells (HFF) obtained from Dr. E. R. Kern (Department of Pediatrics, University of Alabama Medical School, 309 Bevill Biomedical Research Building, 845 19th Street South, Birmingham, Ala., 35294-2170), were used for cytopathic effect (CPE) inhibition assay.” left out
(§5) HFF, Vero and HEp-2 cells were seeded in 24-well tissue culture plates at a concentration of […] in DMEM containing 10% FCS and incubated for 24 hours at 37° C. in the presence of 5% CO2. To the monolayer of these cells 0.5, 1.0, 1.5 and 2.0 ml of solution of antiviral compounds were added in the respective wells in duplicate and the cells were then incubated in a 5% CO2 incubator at 37° C. for 72 hours. The cells were observed daily for any change in morphology. […] At the end of this time, the media-drug solution was removed and the cells washed. One ml of 0.25% trypsin was added to each well and incubated until the cells start to come off of the plate. The cells-media mixture was then pipetted up and down several times to resuspend the cells and 0.2 ml of the cell suspension was added to 9.8 ml of trypan blue and cells were counted using hemocytometer. Each sample was counted three times with three replicate wells per sample.

[2] = tested on: Human laryngeal epithelial carcinoma cells (HEp-2); assay: Cytotoxicity in HEp-2 cells; assay type: cell-based; settings: HEp-2 cells; conc. per compound (ng/ml)
Description: as §2, with “Primary human foreskin fibroblast cells (HFF) obtained from Dr. E. R. Kern (Department of Pediatrics, University of Alabama Medical School, 309 Bevill Biomedical Research Building, 845 19th Street South, Birmingham, Ala., 35294-2170), were used for cytopathic effect (CPE) inhibition assay.” left out
as §5

HSV-1 strain F = assay: CPE inhibition, HSV-1 strain F in HEp-2 cells; further: key: +++ = Complete cytopathic effect; ++ = Moderate cytopathic effect; + = Minimum cytopathic effect; − = No cytopathic effect; assay type: cell-based, herpes simplex virus type 1; settings: conc. per compound (ng/ml)
From the text: as §2, §3, §4

HSV-2 strain G = assay: CPE inhibition, HSV-2 strain G in HEp-2 cells; further: key: +++ = Complete cytopathic effect; ++ = Moderate cytopathic effect; + = Minimum cytopathic effect; − = No cytopathic effect; assay type: cell-based, herpes simplex virus type 2; settings: conc. per compound (ng/ml)
From the text: as §2, §3, §4

[3] = Cell proliferation assay (cytotoxicity) in HFF cells; assay type: cell-based, human; settings: primary human foreskin fibroblast (HFF) cells; Human foreskin fibroblast cells; reduces growth of uninfected cells by 50%
Description: as §2, with “Primary human foreskin fibroblast cells (HFF) obtained from Dr. E. R. Kern (Department of Pediatrics, University of Alabama Medical School, 309 Bevill Biomedical Research Building, 845 19th Street South, Birmingham, Ala., 35294-2170), were used for cytopathic effect (CPE) inhibition assay.” left out
as §5

[4] = HFF cells, solution conc. per compound (ng/ml) (Acyclovir 250), 2.0 ml dose

Compound	EC50 HSV-2 MS (HSV-2 strain MS; CPE inhibition in HFF cells)	EC50 HSV-1 E377 (HSV-1 strain E-377; CPE inhibition in HFF cells)	CC50 [1]	Cell Cytotoxicity [2]	Cytopathic Effect (CPE) Inhibition HSV-1 Strain F (HSV-1 strain F)	Cytopathic Effect (CPE) Inhibition HSV-2 Strain G (HSV-2 strain G)	also measured
CC1(C)CCC23CC[C@]4(C)C(CCC5[C@@]6(C)CC(Br)C(=O)C(C)(C)C6CC[C@]54C)C2C1OC3=O (some centres unmarked) [Example 12, 2-Br-Allobetulonlacton]							melting point: 338 to 342.8 °C (dec.)
Allobetulin ethanolamine chlorohydrate	0.125 µg/mL	0.125 µg/mL	0.125 µg/mL				
Allobetulin ethanolamine	>0.25 µg/mL	>0.25 µg/mL	0.2 µg/mL				
CC1(C)CCC23CCC4(C)C(CCC5C6(C)CCC(OC(=O)CO)C(C)(C)C6CCC54C)C2C1OC3 (centres unmarked) [Allobetulin 3-glycolate, Allobetulin, 3-Glycolate]	0.125 µg/mL (≈ 0.25 µM)	>0.25 µg/mL	>0.25 µg/mL	−	+++	++	
CC1(C)CCC23CC[C@]4(C)C(CCC5[C@@]6(C)CCC(=O)C(C)(C)C6CC[C@]54C)C2C1OC3 (some centres unmarked) [Allobetulon]				−	++	++	Qualitative CPE at 2.0 ml dose HSV-2 MS (HSV-2 strain MS; [4]): +++; EC50 (HSV-2 strain MS; Human alphaherpesvirus 2, HFF, CPE inhibition in HFF cells, read-out: EC50 HSV-2 MS): 0.3 µg/mL (≈ 0.681 µM); Qualitative CPE at 2.0 ml dose HSV-1 E377 (HSV-1 strain E-377; [4]): +++; EC50 (HSV-1 strain E-377; Human alphaherpesvirus 1, HFF, CPE inhibition in HFF cells, read-out: EC50 HSV-1 E377): 0.3 µg/mL (≈ 0.681 µM); Qualitative Cytotoxic Effect at 2.0 ml dose [1, 4]: −; CC50 at 72 h [3]: 0.3 µg/mL (≈ 0.681 µM)
CC1(C)CCC23CCC4(C)C(CCC5C6(C)CCC(OC(=O)CCC(=O)O)C(C)(C)C6CCC54C)C2C1OC3 (centres unmarked) [Allobetulin Succinate, Allobetulin, 3-Succinate]	>0.25 µg/mL	>0.25 µg/mL	>0.25 µg/mL	−	++	+	
CC1(C)CCC23CC[C@]4(C)C(CCC5[C@@]6(C)CCC(=O)C(C)(C)C6CC[C@]54C)C2C1OC3=O (some centres unmarked) [Example 10, Allobetulon Lactone]							melting point: 333.7 to 335.9 °C (dec.)
